pIC50: −log10 of the molar value. Counter-ions that a name gives are not always drawn. Like-named read-outs stand apart in the source and are kept apart here.
Key:
[1] = target: T1, CCK receptor (brain, cerebral cortex) (Cavia porcellus, UniProt H0VZC5); assay: biochemical; format: binding, Male Hartley guinea pigs; details: guinea pig cerebral cortex, ^125 I-CCK-33, 25° C., 2 hours
T1 construct: Cerebral cortex was dissected and used as a receptor source; from tissue; host or cells: guinea pig cerebral cortex membranes (male Hartley)
T1 sequence (H0VZC5 1-426): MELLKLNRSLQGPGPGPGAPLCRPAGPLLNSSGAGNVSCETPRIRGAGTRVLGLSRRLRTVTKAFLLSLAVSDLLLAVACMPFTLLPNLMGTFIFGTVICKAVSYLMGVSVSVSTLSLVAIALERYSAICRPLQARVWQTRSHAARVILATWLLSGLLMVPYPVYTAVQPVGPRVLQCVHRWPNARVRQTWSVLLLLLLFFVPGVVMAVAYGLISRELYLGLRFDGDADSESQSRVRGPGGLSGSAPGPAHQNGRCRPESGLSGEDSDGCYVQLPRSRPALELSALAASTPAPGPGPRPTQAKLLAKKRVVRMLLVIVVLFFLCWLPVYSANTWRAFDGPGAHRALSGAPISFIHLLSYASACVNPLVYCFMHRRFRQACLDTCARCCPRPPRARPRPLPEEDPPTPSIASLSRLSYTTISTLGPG
In short: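 Guinea pig cerebral cortex homogenate as receptor source, with radiolabeled CCK-33 in HEPES buffer containing MgCl2, bacitracin, EGTA and 0.4% BSA. Incubation 2 h at 25°C; bound ligand pelleted by centrifugation and gamma-counted.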

CCK receptor (pancreas) = target: T2, CCK receptor (pancreas) (Rattus norvegicus, UniProt P30551); assay: CCK Receptor Binding (Pancreas): inhibition of ^125 I-CCK-33 binding; parameters: species or system Male Sprague-Dawley rats; details: rat pancreas membranes, ^125 I-CCK-33, 37° C., 30 minutes
T2 construct: The whole pancreas was dissected free of fat tissue and was homogenized; from tissue; host or cells: rat pancreas membranes (Sprague-Dawley)
T2 sequence (P30551 1-444): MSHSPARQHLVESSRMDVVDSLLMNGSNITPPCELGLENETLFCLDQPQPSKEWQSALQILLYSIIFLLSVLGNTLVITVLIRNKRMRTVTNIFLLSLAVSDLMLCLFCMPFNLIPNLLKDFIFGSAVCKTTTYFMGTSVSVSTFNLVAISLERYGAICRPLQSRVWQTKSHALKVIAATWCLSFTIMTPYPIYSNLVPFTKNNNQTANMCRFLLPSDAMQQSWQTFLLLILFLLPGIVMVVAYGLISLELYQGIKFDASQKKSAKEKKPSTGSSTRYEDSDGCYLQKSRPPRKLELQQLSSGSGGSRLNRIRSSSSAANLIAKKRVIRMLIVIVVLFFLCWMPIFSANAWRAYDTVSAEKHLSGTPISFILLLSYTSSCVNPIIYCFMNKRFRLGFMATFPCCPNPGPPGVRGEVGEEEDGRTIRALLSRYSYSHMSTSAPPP
In short: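 Rat (male Sprague-Dawley) pancreatic membranes in 50 mM Tris HCl pH 7.7 with DTT, bacitracin, PMSF and o-phenanthroline; ^125I-Bolton Hunter-labelled CCK-33 as radioligand. Incubation 30 min at 37° C, separation by centrifugation, pellet gamma-counted; Scatchard analysis by diluting ^125I-CCK-33 with increasing CCK-33.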

[2] = target: T3, Gastrin receptor (gastric glands) (Cavia porcellus, UniProt H0VZC5); assay: Gastrin Receptor Binding in Guinea Pig Gastric Glands; parameters: species or system guinea pig (male Hartley); details: 25° C., 30 minutes
T3 construct: The washed guinea pig gastric glands prepared as above were resuspended; from tissue; host or cells: guinea pig gastric mucosal glands (male Hartley)
T3 sequence (H0VZC5 1-426): T1 sequence (H0VZC5 1-426)

[3] = read-out: IC50 ^125 I-CCK Brain
[4] = ^125 I-gastrin, read-out: IC50 ^125 I-Gastrin Gastric Glands
[5] = read-out: IC50 ^125 I-CCK Pancreas
[6] = IC50 ^125 I-Gastrin Gastric Glands

Structure (SMILES)	pIC50 [1, 3]	pIC50 (CCK receptor (pancreas); IC50 ^125 I-CCK Pancreas)	pIC50 [2, 4]	pIC50 ([1]; IC50 ^125 I-CCK Brain)	pIC50 (CCK receptor (pancreas); [5])	pIC50 [2, 6]
CCCCNC(=O)CN1C(=O)C(NC(=O)OCc2ccccc2)N=C(c2ccccc2)c2ccccc21 (stereo not drawn) [Example 213, {2,3-Dihydro-2-oxo-1-[2-oxo-2-(butylamino)ethyl]-5-phenyl-1H-1,4-benzodiazepin-3-yl}-carbamic acid phenylmethyl ester]	6.42	5.68	6.55			
CCOC(=O)CN1C(=O)C(NC(=O)c2cc3ccccc3[nH]2)N=C(c2ccccc2F)c2ccccc21 (stereo not drawn) [Example 214, 5-(2-Fluorophenyl)-2,3-dihydro-3-((1H-indol-2-ylcarbonyl)amino)-2-oxo-1H-1,4-benzodiazepine-1-acetic acid ethyl ester]				6.66	8.52	6.92
CCNC(=O)CN1C(=O)C(NC(=O)OCc2ccccc2)N=C(c2ccccc2)c2ccccc21 (stereo not drawn) [Example 215]	5.74	5.32	6.25			
CN1C(=O)C(NC(=O)c2ccc(Br)cc2)N=C(c2ccccc2)c2ccccc21 (stereo not drawn) [Example 216, 4-Bromo-N-(2,3-dihydro-1-methyl-2-oxo-5-phenyl-1H-1,4-benzodiazepin-3-yl)-benzamide]			5.77	5.62	9.00	
CN1C(=O)C(NC(=O)Nc2ccc(Cl)cc2)N=C(c2ccccc2)c2ccccc21 (stereo not drawn) [Example 217]			7.66	7.64	7.29	
CN1C(=O)[C@@H](NC(=O)c2ccc(C(F)(F)F)cc2)N=C(c2ccccc2F)c2ccccc21 [Example 219, (S)-N-(5-(2-Fluorophenyl)-2,3-dihydro-1-methyl-2-oxo-1H-1,4-benzodiazepin-3-yl)-4-(trifluoromethyl)-benzamide]		9.30	6.36	5.85		
O=C(CN1C(=O)C(NC(=O)Nc2ccc(Cl)cc2)N=C(c2ccccc2)c2ccccc21)NCc1ccccc1 (stereo not drawn) [Example 220]	7.00		6.82		5.62	
CCN(CC)C(=O)CN1C(=O)C(NC(=O)Nc2ccc(Cl)cc2)N=C(c2ccccc2)c2ccccc21 (stereo not drawn) [Example 221, 3-((((4-Chlorophenyl)amino)carbonyl)amino)-N,N-diethyl-2,3-dihydro-2-oxo-5-phenyl-1H-1,4-benzodiazepine-1-acetamide]	9.22		8.70		6.40	
CCN(CC)C(=O)CN1C(=O)C(NC(=O)OCc2ccccc2)N=C(c2ccccc2)c2ccccc21 (stereo not drawn) [Example 222]	6.82	5.66	6.64			
CCCCCc1ccc(C(=O)NC2N=C(c3ccccc3F)c3ccccc3N(C)C2=O)cc1 (stereo not drawn) [Example 223, N-(5-(2-Fluorophenyl)-2,3-dihydro-1-methyl-2-oxo-1H-1,4-benzodiazepin-3-yl)-4-pentylbenzamide]		6.85		< 4.00		< 4.00
CCNC(=O)CN1C(=O)C(NC(=O)Nc2ccc(Cl)cc2)N=C(c2ccccc2)c2ccccc21 (stereo not drawn) [Example 224, 3-((((4-Chlorophenyl)amino)carbonyl)amino)-N-ethyl-2,3-dihydro-2-oxo-5-phenyl-1H-1,4-benzodiazepine-1-acetamide]	7.96		7.60		5.68	
CN1C(=O)C(NC(=O)c2ccc(C(C)(C)C)cc2)N=C(c2ccccc2F)c2ccccc21 (stereo not drawn) [Example 226, 4-(1,1-Dimethylethyl)-N-(5-(2-fluorophenyl)-2,3-dihydro-1-methyl-2-oxo-1H-1,4-benzodiazepin-3-yl)-benzamide]	5.64	> 7.00	5.19			
CC(C)CC(N)C(=O)N1CC(CC2N=C(c3ccccc3)c3ccccc3NC2=O)c2ccccc21 (stereo not drawn) [Example 227, 1-(2-Amino-4-methyl-1-oxopentyl)-3-((2,3-dihydro-2-oxo-5-phenyl-1H-1,4-benzodiazepin-3-yl)methyl)-2,3-dihydro-1H-indole hydrochloride]		5.18		4.30		< 4.00
CCCCCc1ccc(C(=O)N[C@H]2N=C(c3ccccc3F)c3ccccc3N(C)C2=O)cc1 [Example 228, (S)-N-(5-(2-Fluorophenyl)-2,3-dihydro-1-methyl-2-oxo-1H-1,4-benzodiazepin-3-yl)-4-pentylbenzamide]		7.31		4.00		4.22
CCOC(=O)CCN1C(=O)C(NC(=O)OCc2ccccc2)N=C(c2ccccc2)c2ccccc21 (stereo not drawn) [Example 229, 2,3-Dihydro-2-oxo-5-phenyl-3-(((phenylmethoxy)carbonyl)amino)-1H-1,4-benzodiazepine-1-propanoic acid ethyl ester]	6.36	5.92	6.59			
CCOC(=O)CCN1C(=O)C(NC(=O)Nc2ccc(Cl)cc2)N=C(c2ccccc2)c2ccccc21 (stereo not drawn) [Example 230, 3-((((4-Chlorophenyl)amino)carbonyl)amino)-2,3-dihydro-2-oxo-5-phenyl-1H-1,4-benzodiazepine-1-propanoic acid ethyl ester]				8.29	6.31	7.46
CN1C(=O)C(NC(=O)[C@@H](Cc2ccccc2)NC(=O)OC(C)(C)C)N=C(c2ccccc2F)c2ccccc21 (stereo partly drawn) [Example 231, (2-((5-(2-Fluorophenyl)-2,3-dihydro-1-methyl-2-oxo-1H-1,4-benzodiazepin-3-yl)amino)-2-oxo-1-(phenylmethyl)ethyl)-carbamic acid 1,1-dimethylethyl ester]	5.57	6.24	5.54			
CN1C(=O)[C@@H](NC(=O)Nc2ccc(Cl)cc2)N=C(c2ccccc2)c2ccccc21 [Example 233]			6.24	6.39	7.59	
CN1C(=O)[C@H](NC(=O)Nc2ccc(Cl)cc2)N=C(c2ccccc2)c2ccccc21 [Example 234, (R)-N-(4-Chlorophenyl)-N'-(2,3-dihydro-1-methyl-2-oxo-5-phenyl-1H-1,4-benzodiazepin-3-yl)-Urea]			7.92	8.26	5.96	
CN1CCN(C(=O)CN2C(=O)C(NC(=O)OCc3ccccc3)N=C(c3ccccc3)c3ccccc32)CC1 (stereo not drawn) [Example 235, (2,3-Dihydro-1-(2-(4-methyl-1-piperazinyl)-2-oxoethyl)-2-oxo-5-phenyl-1H-1,4-benzodiazepin-3-yl)-carbamic acid phenylmethyl ester]	5.77	4.54	5.85			
O=C(Nc1ccc(Cl)cc1)NC1N=C(c2ccccc2)c2ccccc2N(CC(=O)N2CCCC2)C1=O (stereo not drawn) [Example 236, 1-((3-((((4-Chlorophenyl)amino)carbonyl)amino)-2,3-dihydro-2-oxo-5-phenyl-1H-1,4-benzodiazepin-1-yl)acetyl)pyrrolidine]	9.55		9.30		6.28	
CN1CCN(C(=O)CN2C(=O)C(NC(=O)Nc3ccc(Cl)cc3)N=C(c3ccccc3)c3ccccc32)CC1 (stereo not drawn) [Example 237, 1-((3-((((4-Chlorophenyl)amino)carbonyl)amino)-2,3-dihydro-2-oxo-5-phenyl-1H-1,4-benzodiazepin-1-yl)acetyl)-4-methylpiperazine]	8.10		8.59		5.92	
CN1C(=O)C(NC(=O)c2ccsc2)N=C(c2ccccc2F)c2ccccc21 (stereo not drawn) [Example 238, N-(5-(2-Fluorophenyl)-2,3-dihydro-1-methyl-2-oxo-1H-1,4-benzodiazepin-3-yl)-3-thiophenecarboxamide]				4.59	7.55	4.96

Source: US4820834A, “Benzodiazepine analogs” (priority 1987, dated 1989)
